Our source for the EC50 values is patent US20250136606A1, “MODULATORS OF TRPML, THEIR COMPOSITIONS AND METHODS OF USE” (Caraway Therapeutics, Inc., priority 2021, published 2025).

This test deals with TRPML1 (Homo sapiens, UniProt Q9GZU1). As to the kind of experiment: Fluorescent TRPML1 assay (Fluo4-AM calcium fluorescence in doxycycline-induced HEK-293 Trex cells). It is filed as cell-based. The settings on record: fluorescent calcium assay. The method, then: HEK-293 Trex cells were stably transfected with a construct consisting of the human coding sequence for TRPML1 cloned into the […] plasmid pCDNA5 T/O. Mutations were introduced into the TRPML1 sequence to facilitate expression on the cell surface (Silvia Vergarajauregui, Rosa Puertollano, Traffic. 2006 March; 7(3): 337-353). Briefly, the cells are cultured in 150 mm round tissue culture dishes containing 20 mL of media. The day before the assay the cells are rinsed with DPBS-Ca—Mg and then treated briefly with Trypsin-EDTA. The Trypsin-EDTA is diluted with growth media, and cells are counted. 38×10^6 cells are re-plated into 150 mm round tissue culture dishes in media containing 0.5 ug/mL doxycycline to induce expression of hTRPML1.
TRPML1, sequence (Q9GZU1 whole entry L15A/L16A/L577A/L578A, form open): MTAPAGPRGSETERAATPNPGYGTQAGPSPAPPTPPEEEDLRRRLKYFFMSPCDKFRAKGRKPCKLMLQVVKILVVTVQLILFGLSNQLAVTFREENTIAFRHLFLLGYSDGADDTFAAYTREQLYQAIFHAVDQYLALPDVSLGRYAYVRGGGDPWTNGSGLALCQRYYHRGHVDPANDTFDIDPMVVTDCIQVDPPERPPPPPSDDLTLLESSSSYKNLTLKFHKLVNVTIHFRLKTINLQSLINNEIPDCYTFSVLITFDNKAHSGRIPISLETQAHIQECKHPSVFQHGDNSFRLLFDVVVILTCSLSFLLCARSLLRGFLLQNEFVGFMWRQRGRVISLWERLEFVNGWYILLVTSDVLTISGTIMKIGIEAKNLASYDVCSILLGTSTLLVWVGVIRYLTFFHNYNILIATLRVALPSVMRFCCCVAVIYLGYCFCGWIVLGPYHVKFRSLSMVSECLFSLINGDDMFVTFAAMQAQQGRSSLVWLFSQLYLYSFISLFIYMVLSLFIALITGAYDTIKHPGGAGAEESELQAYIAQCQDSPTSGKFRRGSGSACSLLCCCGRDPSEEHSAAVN
The day of the experiment cells are lifted from the plates as above and collected by centrifugation. The cells are then suspended in dye loading buffer consisting of Ringer's solution supplemented with 0.1% Pluronic Acid and 1 micromolar Fluo4-AM dye. Cells are loaded for ˜60 minutes in the dark with occasional mixing. The cells are collected by centrifugation, the loading media aspirated, and the cells resuspended in 25 mL Ringer's solution and incubated ˜60 minutes in the dark. The cells are again collected by centrifugation, rinsed in Ringer's Solution and resuspended to […] in modified Ringer's solution containing 10 mM calcium.
Compounds are dissolved to a concentration of 10 millimolar with DMSO. Compound plates are created by dispensing compounds into 384 well black wall clear bottom plates (Greiner 781091). Positive and negative controls are included on each plate. Typically, different amounts of each compound are tested ranging from 100 nanoMoles (20 micromolar final concentration) decreasing in half-log steps to 31 picoMoles (6 nanomolar final concentration). Each concentration is typically tested in triplicate.
50 microliters of dye-loaded cells are dispensed into each well of the compound assay plate created above. The fluorescence in each well is then determined with an excitation wavelength of 480 nm and an emission wavelength of 540 nm using either a Molecular Devices SpectraMax multimode plate reader or a Hamamatsu FDSS/uCell plate imager.
The resulting fluorescence for each well is exported as an ascii file and loaded into our LIMS for analysis. The percent activity of each compound at each concentration is determined by comparison to the positive and negative control wells included in each plate.
EC50 values were calculated using a non-linear regression of Prism. In the table, “A” indicates an EC50 of less than 100 nM, “B” indicates an EC50 range from 100 nM to 500 nM; “C” indicates an EC50 range from 500 nM to 2 μM; and “D” indicates an EC50 greater than 2 μM.

On to `CC(C)(C)OC(=O)N1CCN(c2ncnc3c2c(C2CC2)cn3-c2cc(F)cc(F)c2)C[C@@H]1C(F)(F)F` [Compound 276, tert-butyl (R)-4-(5-cyclopropyl-7-(3,5-difluorophenyl)-7H-pyrrolo[2,3-d]pyrimidin-4-yl)-2-(trifluoromethyl)piperazine-1-carboxylate], for which the EC50 was less than 100 nM.

`C[C@@H]1CN(c2ncnc3c2c(N2CCCC2)cn3-c2cccc(C#N)c2)CCN1C(=O)OC(C)(C)C` [Compound 277, tert-butyl (R)-4-(7-(3-cyanophenyl)-5-(pyrrolidin-1-yl)-7H-pyrrolo[2,3-d]pyrimidin-4-yl)-2-methylpiperazine-1-carboxylate]: the concentration for a half-maximal effect (EC50) was less than 100 nM.

On to `COc1cccc(-n2cc(-c3ccccn3)c3c(N4CCN(C(=O)OC(C)(C)C)C[C@@H]4C)ncnc32)c1` [Compound 278, tert-butyl (S)-4-(7-(3-methoxyphenyl)-5-(pyridin-2-yl)-7H-pyrrolo[2,3-d]pyrimidin-4-yl)-3-methylpiperazine-1-carboxylate], for which the 50% effective concentration (EC50) lay within 500 to 2000 nM.

Turning to `C[C@H]1CN(C(=O)OC(C)(C)C)CCN1c1ncnc2c1c(-c1ccccn1)cn2-c1cccc(OC(F)(F)F)c1` [Compound 279, tert-butyl (S)-3-methyl-4-(5-(pyridin-2-yl)-7-(3-(trifluoromethoxy)phenyl)-7H-pyrrolo[2,3-d]pyrimidin-4-yl)piperazine-1-carboxylate], the EC50 is 100 to 500 nM.

Regarding `C[C@H]1CN(C(=O)OC(C)(C)C)CCN1c1ncnc2c1c(-c1ccccn1)cn2-c1cccc(C#N)c1` [Compound 280, tert-butyl (S)-4-(7-(3-cyanophenyl)-5-(pyridin-2-yl)-7H-pyrrolo[2,3-d]pyrimidin-4-yl)-3-methylpiperazine-1-carboxylate], the EC50 was in the range of 100 to 500 nM.

For the compound `C[C@H]1CN(C(=O)OC(C)(C)C)CCN1c1ncnc2c1c(-c1cccnc1)cn2-c1cccc(OC(F)(F)F)c1` [Compound 281, tert-butyl-(S)-3-methyl-4-(5-(pyridin-3-yl)-7-(3-(trifluoromethoxy)phenyl)-7H-pyrrolo [2,3-d]pyrimidin-4-yl)piperazine-1-carboxylate], the EC50 was less than 100 nM.

For the compound `C[C@H]1CN(C(=O)OC(C)(C)C)CCN1c1ncnc2c1c(-c1cccnc1)cn2-c1cccc(C#N)c1` [Compound 282, tert-butyl-(S)-4-(7-(3-cyanophenyl)-5-(pyridin-3-yl)-7H-pyrrolo[2,3-d]pyrimidin-4-yl)-3-methylpiperazine-1-carboxylate], the EC50 lay in the range of 100 to 500 nM.

Regarding `C[C@H]1CN(C(=O)OC(C)(C)C)CCN1c1ncnc2c1c(C1CCOCC1)nn2-c1cccc(Cl)c1` [Compound 284, tert-butyl (S)-4-(1-(3-chlorophenyl)-3-(tetrahydro-2H-pyran-4-yl)-1H-pyrazolo[3,4-d]pyrimidin-4-yl)-3-methylpiperazine-1-carboxylate], the EC50 fell in the range of 500 to 2000 nM.

Turning to `C[C@H]1CN(C(=O)OC(C)(C)C)CCN1c1ncnc2c1c(N1CCCC1)cn2-c1cccc(C#N)c1` [Compound 285, tert-butyl (S)-4-(7-(3-cyanophenyl)-5-(pyrrolidin-1-yl)-7H-pyrrolo[2,3-d]pyrimidin-4-yl)-3-methylpiperazine-1-carboxylate], the concentration giving a half-maximal response (EC50) is less than 100 nM.

`C[C@@H]1CCCN1c1cn(-c2cccc(Cl)c2)c2ncnc(N3CCN(C(=O)OC(C)(C)C)C[C@@H]3C)c12` [Compound 286, tert-butyl (S)-4-(7-(3-chlorophenyl)-5-((R)-2-methylpyrrolidin-1-yl)-7H-pyrrolo[2,3-d]pyrimidin-4-yl)-3-methylpiperazine-1-carboxylate]: the EC50 is 100 to 500 nM.

Take `C[C@@H]1CN(c2ncnc3c2c(N2CCCCC2)cn3-c2cccc(Cl)c2)CCN1C(=O)OC(C)(C)C` [Compound 287, tert-butyl (R)-4-(7-(3-chlorophenyl)-5-(piperidin-1-yl)-7H-pyrrolo[2,3-d]pyrimidin-4-yl)-2-methylpiperazine-1-carboxylate]: the half-maximal effective concentration (EC50) was less than 100 nM.

For the compound `COc1cc(F)cc(-n2cc(C3CC3)c3c(N4CCN(C(=O)OC(C)(C)C)C[C@@H]4C)ncnc32)c1` [Compound 288, tert-butyl (S)-4-(5-cyclopropyl-7-(3-fluoro-5-methoxyphenyl)-7H-pyrrolo[2,3-d]pyrimidin-4-yl)-3-methylpiperazine-1-carboxylate], the concentration for a half-maximal effect (EC50) fell in the range of 100 to 500 nM.

As for `COc1cc(OC)cc(-n2cc(C3CC3)c3c(N4CCN(C(=O)OC(C)(C)C)C[C@@H]4C)ncnc32)c1` [Compound 289, tert-butyl (S)-4-(5-cyclopropyl-7-(3,5-dimethoxyphenyl)-7H-pyrrolo[2,3-d]pyrimidin-4-yl)-3-methylpiperazine-1-carboxylate], the 50% effective concentration (EC50) was 100 to 500 nM.

Turning to `C[C@H]1CN(C(=O)OC(C)(C)C)CCN1c1ncnc2c1c(C1CC1)cn2-c1ccc(F)c(C#N)c1` [Compound 290, tert-butyl (S)-4-(7-(3-cyano-4-fluorophenyl)-5-cyclopropyl-7H-pyrrolo[2,3-d]pyrimidin-4-yl)-3-methylpiperazine-1-carboxylate], the half-maximal effective concentration (EC50) is less than 100 nM.

As to `C[C@H]1CN(C(=O)OC(C)(C)C)CCN1c1ncnc2c1c(C1CC1)cn2-c1cc(F)cc(C#N)c1` [Compound 291, tert-butyl (S)-4-(7-(3-cyano-5-fluorophenyl)-5-cyclopropyl-7H-pyrrolo[2,3-d]pyrimidin-4-yl)-3-methylpiperazine-1-carboxylate], the half-maximal effective concentration (EC50) is less than 100 nM.

`C[C@H]1CN(C(=O)OC(C)(C)C)CCN1c1ncnc2c1c(C1CC1)cn2-c1cc(C#N)cc(C#N)c1` [Compound 292, tert-butyl (S)-4-(5-cyclopropyl-7-(3,5-dicyanophenyl)-7H-pyrrolo[2,3-d]pyrimidin-4-yl)-3-methylpiperazine-1-carboxylate]: the half-maximal effective concentration (EC50) was in the range of 100 to 500 nM.

Take `COc1cccc(-n2cc(-c3nccnc3C)c3c(N4CCN(C(=O)OC(C)(C)C)C[C@@H]4C)ncnc32)c1` [Compound 293, tert-butyl (S)-4-(7-(3-methoxyphenyl)-5-(3-methylpyrazin-2-yl)-7H-pyrrolo[2,3-d]pyrimidin-4-yl)-3-methylpiperazine-1-carboxylate]: the EC50 lay in the range of 500 to 2000 nM.

With `Cc1nccnc1-c1cn(-c2cccc(C#N)c2)c2ncnc(N3CCN(C(=O)OC(C)(C)C)C[C@@H]3C)c12` [Compound 294, tert-butyl (S)-4-(7-(3-cyanophenyl)-5-(3-methylpyrazin-2-yl)-7H-pyrrolo[2,3-d]pyrimidin-4-yl)-3-methylpiperazine-1-carboxylate], the half-maximal effective concentration (EC50) fell in the range of 500 to 2000 nM.

Take `COc1cccc(-n2cc(-c3cnccn3)c3c(N4CCN(C(=O)OC(C)(C)C)C[C@@H]4C)ncnc32)c1` [Compound 295, tert-butyl (S)-4-(7-(3-methoxyphenyl)-5-(pyrazin-2-yl)-7H-pyrrolo[2,3-d]pyrimidin-4-yl)-3-methylpiperazine-1-carboxylate]: the EC50 lay within 500 to 2000 nM.

As to `C[C@H]1CN(C(=O)OC(C)(C)C)CCN1c1ncnc2c1c(-c1cnccn1)cn2-c1cccc(OC(F)(F)F)c1` [Compound 296, tert-butyl (S)-3-methyl-4-(5-(pyrazin-2-yl)-7-(3-(trifluoromethoxy)phenyl)-7H-pyrrolo[2,3-d]pyrimidin-4-yl)piperazine-1-carboxylate], the EC50 fell in the range of 100 to 500 nM.

As for `C[C@H]1CN(C(=O)OC(C)(C)C)CCN1c1ncnc2c1c(-c1cnccn1)cn2-c1cccc(C#N)c1` [Compound 297, tert-butyl (S)-4-(7-(3-cyanophenyl)-5-(pyrazin-2-yl)-7H-pyrrolo[2,3-d]pyrimidin-4-yl)-3-methylpiperazine-1-carboxylate], the half-maximal effective concentration (EC50) fell in the range of 500 to 2000 nM.

With `C[C@H]1CN(C(=O)OC(C)(C)C)CCN1c1ncnc2c1c(N1CCC[C@H]1CO)cn2-c1cccc(Cl)c1` [Compound 298, tert-butyl (S)-4-(7-(3-chlorophenyl)-5-((S)-2-(hydroxymethyl)pyrrolidin-1-yl)-7H-pyrrolo[2,3-d]pyrimidin-4-yl)-3-methylpiperazine-1-carboxylate], the EC50 lay in the range of 500 to 2000 nM.

As to `C[C@H]1CN(C(=O)OC(C)(C)C)CCN1c1ncnc2c1c(N1CCCC1)cn2-c1cc(F)c(F)c(F)c1` [Compound 356, tert-butyl (S)-3-methyl-4-(5-(pyrrolidin-1-yl)-7-(3,4,5-trifluorophenyl)-7H-pyrrolo[2,3-d]pyrimidin-4-yl)piperazine-1-carboxylate], the EC50 was less than 100 nM.

Regarding `C[C@H]1CN(C(=O)OC(C)(C)C)CCN1c1ncnc2c1c(C1CC1)nn2-c1cccc(C#N)c1` [Compound 357, tert-butyl (S)-4-(1-(3-cyanophenyl)-3-cyclopropyl-1H-pyrazolo[3,4-d]pyrimidin-4-yl)-3-methylpiperazine-1-carboxylate], the EC50 is less than 100 nM.
